The values that follow come from patent US20220411372A1, “SMALL-MOLECULE INHIBITORS FOR THE B-CATENIN/B-CELL LYMPHOMA 9 PROTEIN-PROTEIN INTERACTION” (H. Lee Moffitt Cancer Center and Research Institute, Inc., priority 2019, published 2022).

Some results are limits rather than exact numbers.

For one assay, the target named is T1, β-catenin/BCL9 PPI (Homo sapiens, UniProt P35222).
T1 construct: Full-length β-catenin (residues 1-781) were cloned into a pET-28b vector; made in house; host or cells: E. coli BL21 DE3 (β-catenin); BCL9 peptide synthesized by InnoPep Inc
T1 sequence (P35222 1-781): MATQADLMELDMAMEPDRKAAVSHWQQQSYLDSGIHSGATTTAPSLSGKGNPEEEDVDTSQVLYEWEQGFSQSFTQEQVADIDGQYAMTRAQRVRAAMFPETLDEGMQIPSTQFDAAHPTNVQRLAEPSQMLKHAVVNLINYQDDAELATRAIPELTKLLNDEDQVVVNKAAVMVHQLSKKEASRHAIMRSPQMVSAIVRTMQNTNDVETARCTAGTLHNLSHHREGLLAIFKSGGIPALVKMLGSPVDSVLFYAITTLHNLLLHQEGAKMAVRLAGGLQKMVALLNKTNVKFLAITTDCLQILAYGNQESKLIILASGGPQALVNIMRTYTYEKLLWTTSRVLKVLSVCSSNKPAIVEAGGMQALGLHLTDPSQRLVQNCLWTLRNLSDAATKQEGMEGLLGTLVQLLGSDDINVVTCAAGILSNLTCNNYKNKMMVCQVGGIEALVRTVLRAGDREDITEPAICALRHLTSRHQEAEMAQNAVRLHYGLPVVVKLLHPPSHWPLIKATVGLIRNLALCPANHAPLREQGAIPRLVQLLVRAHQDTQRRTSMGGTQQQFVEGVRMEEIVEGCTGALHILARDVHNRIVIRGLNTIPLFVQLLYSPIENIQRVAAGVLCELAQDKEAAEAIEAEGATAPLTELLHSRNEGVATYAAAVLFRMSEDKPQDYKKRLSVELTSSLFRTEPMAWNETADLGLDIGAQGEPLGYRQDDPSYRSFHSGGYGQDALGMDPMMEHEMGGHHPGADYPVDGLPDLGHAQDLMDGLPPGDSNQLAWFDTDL
In words: AlphaScreen competitive inhibition assay of the β-catenin/BCL9 PPI. The assay is classed as binding. The conditions noted are these: Table 3, inhibitors 27-43; read-out: Ki. As for the experimental part: AlphaScreen Assays of β-Catenin and BCL9 Interaction. Experiments were performed in white opaque 384-well plates from PerkinElmer (Waltham, Mass.), and the samples were read on a Synergy 2 plate reader (Biotek, Winooski, Vt.) with excitation at 680 nm and emission at 570 nm. The standard AlphaScreen protocol was used with a sensitivity setting of 200. All dilutions were made in 1× assay buffer containing 25 mM Hepes (pH 7.4), 100 mM NaCl, 0.01% Triton X-100 and 0.1% BSA to minimize nonspecific interactions.
For the β-catenin/BCL9 assay, 5 nM biotinylated BCL9 and 40 nM His6-tagged β-catenin were incubated in assay buffer at 4° C. for 30 min. For the β-catenin/E-cadherin assay, 10 nM biotinylated human E-cadherin, and 40 nM His6-tagged human β-catenin were added and incubated in assay buffer at 4° C. for 30 min. Different concentrations of the tested inhibitor were added and incubated in 20 μL assay buffer at 4° C. for another 1 h. All of the assay plates were covered and gently mixed on an orbital shaker. The donor and acceptor beads were then added to the plates to a final concentration of 10 μg/mL in […]. The mixture was incubated for 1 h at 4° C. before detection. The IC50 value was determined by nonlinear least-square analysis of GraphPad Prism 5.0. […] All of the experiments were performed in triplicate and carried out in the presence of 1% DMSO for small-molecule inhibitors. Each compound was assayed at least by two independent experiments. The results were expressed as mean±standard deviation. The inhibitor selectivity for β-catenin/BCL9 over β-catenin/E-canderin interactions was defined as the ratio of the respective Ki value of β-catenin/E-cadherin interactions over that of β-catenin/BCL9 interactions.
(In Alpha technology, singlet oxygen from a donor bead excites a nearby acceptor bead.)
`Cc1n[nH]c(C)c1-c1ccc(CN(C(=O)[C@@H]2CCCN(c3cccc(OC(C)(C)C(=O)N4CCNCC4)c3)C2)C2CC2)cc1` [Compound 40, (R)-4-(2-(3-(3-(cyclopropyl(4-(3,5-dimethyl-1H-pyrazol-4-yl)benzyl)carbamoyl)piperidin-1-yl)phenoxy)-2-methylpropanoyl)piperazin-1-ium chloride]: the Ki (usually a dissociation constant, usually derived from enzyme kinetics or from competition with a known ligand) was less than 10 µM. Still for that read-out and setting: with `Cc1noc(C)c1-c1ccc(CN(C(=O)[C@@H]2CCCN(c3cccc(OC(C)(C)C(=O)N4CCNCC4)c3)C2)C2CC2)cc1` [Compound 41, (R)-4-(2-(3-(3-(cyclopropyl(4-(3,5-dimethylisoxazol-4-yl)benzyl)carbamoyl)piperidin-1-yl)phenoxy)-2-methylpropanoyl)piperazin-1-ium chloride] the figure was less than 30 µM; with `CC(C)(Oc1cccc(N2CCC[C@@H](C(=O)N(Cc3ccc(-c4c[nH]c5ccccc45)cc3)C3CC3)C2)c1)C(=O)N1CCNCC1` [Compound 42, (R)-4-(2-(3-(3-((4-(1H-indol-3-yl)benzyl)(cyclopropyl)carbamoyl)piperidin-1-yl)phenoxy)-2-methylpropanoyl)piperazin-1-ium], less than 5 µM.

The assay is the same for the next values; noted with them: Table 4, left half, inhibitors 44-48; read-out: Ki.
`CN(Cc1ccc(-c2cn[nH]c2)cc1)C(=O)[C@@H]1CCCN(c2cccc(OC(C)(C)C(=O)N3CCNCC3)c2)C1` [Compound 45, (R)-4-(2-(3-(3-((4-(1H-pyrazol-4-yl)benzyl)(methyl)carbamoyl)piperidin-1-yl)phenoxy)-2-methylpropanoyl)piperazin-1-ium chloride]: the inhibitory constant (Ki) was less than 30 µM. The same measure, in the same setting: with `CC(C)N(Cc1ccc(-c2cn[nH]c2)cc1)C(=O)[C@@H]1CCCN(c2cccc(OC(C)(C)C(=O)N3CCNCC3)c2)C1` [Compound 47, (R)-4-(2-(3-(3-((4-(1H-pyrazol-4-yl)benzyl)(isopropyl)carbamoyl)piperidin-1-yl)phenoxy)-2-methylpropanoyl)piperazin-1-ium chloride] the figure was less than 10 µM; with `CC(C)(Oc1cccc(N2CCC[C@@H](C(=O)N(Cc3ccc(-c4cn[nH]c4)cc3)CC3CC3)C2)c1)C(=O)N1CCNCC1` [Compound 48, (R)-4-(2-(3-(3-((4-(1H-pyrazol-4-yl)benzyl)(cyclopropylmethyl)carbamoyl)piperidin-1-yl)phenoxy)-2-methylpropanoyl)piperazin-1-ium chloride], less than 90 µM.

Staying with this assay, now noted: Table 4, right half, inhibitors 49-53; read-out: Ki ± SD.
Take `CC(C)(Oc1cccc(N2CCC[C@@H](C(=O)N(Cc3ccc(-c4cn[nH]c4)cc3)C3CCC3)C2)c1)C(=O)N1CCNCC1` [Compound 49, (R)-4-(2-(3-(3-((4-(1H-pyrazol-4-yl)benzyl)(cyclobutyl)carbamoyl)piperidin-1-yl)phenoxy)-2-methylpropanoyl)piperazin-1-ium chloride]: the Ki is less than 30 µM.

For the compound `CC(C)(Oc1cccc(N2CCC[C@@H](C(=O)N(Cc3ccc(-c4cn[nH]c4)cc3)C3CCCC3)C2)c1)C(=O)N1CCNCC1` [Compound 50, (R)-4-(2-(3-(3-((4-(1H-pyrazol-4-yl)benzyl)(cyclopentyl)carbamoyl)piperidin-1-yl)phenoxy)-2-methylpropanoyl)piperazin-1-ium chloride], the Ki was less than 10 µM. Turning to `CC(C)(Oc1cccc(N2CCC[C@@H](C(=O)N(Cc3ccc(-c4cn[nH]c4)cc3)C3CCCCC3)C2)c1)C(=O)N1CCNCC1` [Compound 51, (R)-4-(2-(3-(3-((4-(1H-pyrazol-4-yl)benzyl)(cyclohexyl)carbamoyl)piperidin-1-yl)phenoxy)-2-methylpropanoyl)piperazin-1-ium chloride], the Ki is less than 30 µM. Regarding `CCOCCN(Cc1ccc(-c2cn[nH]c2)cc1)C(=O)[C@@H]1CCCN(c2cccc(OC(C)(C)C(=O)N3CCNCC3)c2)C1.Cl` [Compound 52, (R)-4-(2-(3-(3-((4-(1H-pyrazol-4-yl)benzyl)(2-ethoxyethyl)carbamoyl)piperidin-1-yl)phenoxy)-2-methylpropanoyl)piperazin-1-ium chloride], the Ki was less than 5 µM. On the same count and under the same terms, with `CC(C)(Oc1cccc(N2CCC[C@@H](C(=O)N(CCN)Cc3ccc(-c4cn[nH]c4)cc3)C2)c1)C(=O)N1CCNCC1` [Compound 53, (R)-4-(2-(3-(3-((4-(1H-pyrazol-4-yl)benzyl)(2-ammonioethyl)carbamoyl)piperidin-1-yl)phenoxy)-2-methylpropanoyl)piperazin-1-ium chloride] the figure was less than 90 µM.

The assay is the same for the next values; noted with them: Table 5, inhibitors 54-62; read-out: Ki.
As to `CC(C)(Oc1cccc(N2CCC[C@@H](C(=O)N(Cc3ccc(-c4cn[nH]c4)cc3)C3CC3)C2)c1)C(=O)N1CCCNCC1` [Compound 54, (R)-4-(2-(3-(3-((4-(1H-pyrazol-4-yl)benzyl)(cyclopropyl)carbamoyl)piperidin-1-yl)phenoxy)-2-methylpropanoyl)-1,4-diazepan-1-ium chloride], the Ki was less than 10 µM. On the same count and under the same terms, with `CC(C)(Oc1cccc(N2CCC[C@@H](C(=O)N(Cc3ccc(-c4cn[nH]c4)cc3)C3CC3)C2)c1)C(=O)N1CCOCC1` [Compound 56, (R)-N-(4-(1H-pyrazol-4-yl)benzyl)-N-cyclopropyl-1-(3-((2-methyl-1-morpholino-1-oxopropan-2-yl)oxy)phenyl)piperidine-3-carboxamide] the figure was more than 90 µM; with `CC(C)(Oc1cccc(N2CCC[C@@H](C(=O)N(Cc3ccc(-c4cn[nH]c4)cc3)C3CC3)C2)c1)C(=O)N1CCCCC1` [Compound 57, (R)-N-(4-(1H-pyrazol-4-yl)benzyl)-N-cyclopropyl-1-(3-((2-methyl-1-oxo-1-(piperidin-1-yl)propan-2-yl)oxy)phenyl)piperidine-3-carboxamide], more than 90 µM.

For the compound `CC(C)(Oc1cccc(N2CCC[C@@H](C(=O)N(Cc3ccc(-c4cn[nH]c4)cc3)C3CC3)C2)c1)C(=O)N1C[C@H]2CNC[C@H]2C1` [Compound 58, (3aR,6aS)-5-(2-(3-((R)-3-((4-(1H-pyrazol-4-yl)benzyl)(cyclopropyl)carbamoyl)piperidin-1-yl)phenoxy)-2-methylpropanoyl)octahydropyrrolo[3,4-c]pyrrol-2-ium chloride], the Ki is less than 30 µM.

On to `CC(C)(Oc1cccc(N2CCC[C@@H](C(=O)N(Cc3ccc(-c4cn[nH]c4)cc3)C3CC3)C2)c1)C(=O)N1CCC2(CCNC2)C1` (stereo partly drawn) [Compound 59, 7-(2-(3-((R)-3-((4-(1H-pyrazol-4-yl)benzyl)(cyclopropyl)carbamoyl)piperidin-1-yl)phenoxy)-2-methylpropanoyl)-2,7-diazaspiro[4.4]nonan-2-ium chloride], for which the Ki was less than 5 µM.

As to `CC(C)(Oc1cccc(N2CCC[C@@H](C(=O)N(Cc3ccc(-c4cn[nH]c4)cc3)C3CC3)C2)c1)C(=O)N1CC2(CCNCC2)C1` [Compound 60, (R)-2-(2-(3-(3-((4-(1H-pyrazol-4-yl)benzyl)(cyclopropyl)carbamoyl)piperidin-1-yl)phenoxy)-2-methylpropanoyl)-2,7-diazaspiro[3.5]nonan-7-ium 2,2,2-trifluoroacetate], the Ki was less than 30 µM. Regarding `CC(C)(Oc1cccc(N2CCC[C@@H](C(=O)N(Cc3ccc(-c4cn[nH]c4)cc3)C3CC3)C2)c1)C(=O)N1CCC2(CNC2)C1` [Compound 61, (R)-6-(2-(3-(3-((4-(1H-pyrazol-4-yl)benzyl)(cyclopropyl)carbamoyl)piperidin-1-yl)phenoxy)-2-methylpropanoyl)-2,6-diazaspiro[3.4]octan-2-ium 2,2,2-trifluoroacetate], the Ki is less than 30 µM.

The same assay, now with this note: linear alkyl R1 substitutions; FIG. 4A.
As for `CCOCCN(Cc1ccc(-c2cn[nH]c2)cc1)C(=O)[C@@H]1CCCN(c2cccc(OC(C)(C)C(=O)N3CCNCC3)c2)C1.Cl` [Compound 52, (R)-4-(2-(3-(3-((4-(1H-pyrazol-4-yl)benzyl)(2-ethoxyethyl)carbamoyl)piperidin-1-yl)phenoxy)-2-methylpropanoyl)piperazin-1-ium chloride], the “inhibitory activity (SAR, AlphaScreen)” value was “maintained the inhibitory activities”.
